Common to all, as to type: cell-based
For test [1], the system named is NCI-H1975 (EGFR L858R/T790M). The test is described as follows: In vitro growth inhibition (GI50), NCI-H1975. Particulars: Homo sapiens. An excerpt:
(§1) Tumor cell line is an effective cell model for studying the inhibition of tumor cell growth or proliferation in vitro. In the present invention, a representative tumor cell line was selected to determine the cell growth inhibition activity of the present compound. All cell lines used were from ATCC, DSMZ, and the Cell Bank of the Chinese Academy of Sciences. Cell culture conditions and methods were in accordance with the requirements of each cell line. Cells were subcultured in vitro for no more than 3 passages each time, and as required, single-clone purification and identification of cell lines could be carried out.
(§2) The cell culture media used were RPMI1640 (Gibco), MEM (Gibco), McCOY'S5A (Gibco), and IMDM (Gibco). The complete medium was prepared by supplement with 5˜20% fetal calf serum (Gibco), 1% double-antibiotics (10000 units/mL penicillin and 10000 units/mL), 2 mM glutamine or 1 mM sodium pyruvate, respectively.
(§3) Human epidermal cancer cell line A431 (EGFR WT, amplification and high expression, from Shanghai Cell Bank of Chinese Academy of Sciences and ATCC), human lung cancer cell line NCI-H292 (EGFR WT, purchased from Shanghai Cell Bank of Chinese Academy of Sciences), NSCLC cell lines PC-9 and HCC827 (EGFR exon19 E746-A750 deletion, two cell lines are sensitive to the first-generation EGFR PTK inhibitor), NSCLC cell line NCI-H1975 (EGFR L858R/T790M and the first-generation EGFR inhibitor resistance, ATCC) were cultured with 1×RPMI1640 complete medium (supplement with 10% FBS), respectively.
(§4) Adherent cells were digested with 0.25% pancreatin-EDTA (Gibco). The suspension cells were collected by centrifugation. The supernatant was discarded and the cell pellet was resuspended and counted. Different cell concentrations (5˜10×10^4 cells/mL) were prepared according to the growth cycle of each cell line and then seeded on a 96-well plate (Corning), 100 μL/well. The cells were incubated overnight at 37° C., 5% CO2. The compounds were added to the cells on the second day with 2 wells in parallel. The final concentration of organic solvent shall not exceed 1%. The cells were continually incubated for 3 to 5 days, and then subjected to MTT assay.
(§5) The compound of the present invention and the control compound were dissolved in DMSO (Sigma) respectively, with the purity of more than 98%. The compound was stored in a concentration of 10 mM at −20° C. and diluted to 2- or 10-fold series prior to use.
(§6) Dojindo CCK8 reagent kit was used as MTT assay. THERMO […] FC meter was used as microplate reader.
(§7) For adherent cells, culture medium was removed and immediately replaced with the fresh prepared medium which contains 10% CCK8 reagent (100 μL/well). For the suspension cells, CCK8 was directly added to 10% of the final concentration. The cells were continually incubated for 1˜4 h. When a dark yellow color could be observed in the solvent control wells, the absorbance value at OD450 nm was measured and the cell growth rate was calculated according to the following formula: Cell Growth Rate (%)=100*(T−T0)/(C−T0) T=optical density of drug treatment cell well—optical density of blank control well; T0=optical density of cell well before drug treatment—optical density of blank control well; C=optical density of cell well of solvent control group—optical density of blank control well. The concentration value of 50% inhibition of cell growth (GI50) was calculated according to the drug concentration and cell growth rate curve. The experiment was independently repeated 1˜3 times, and subject to biological statistical analysis. 4. Experimental Results
(§8) Tumor cell growth inhibition test was performed by selecting representative compounds (compounds 4, 11, 12, 16, 27, 68, 71, 77, 79, 89 and 116 of the present invention). The initial concentration of the compound was 5,000 nM, then it was serially diluted by 2-fold or 10-fold to 0.01 nM. The GI50 value of each test compound was calculated according to the GI50 assay and calculation method. […]

Test [2] concerns A431 (EGFR WT, amplification and high expression). Nature of the test: In vitro growth inhibition (GI50), A431. The settings on record: Homo sapiens, A-431.
Source text: as §1, §2, §3, §4, §5, §6, §7, §8

Test [3] relates to A549 (KRAS G12S mutant type). The test is described as follows: In vitro growth inhibition (GI50), A549. The settings on record: Homo sapiens; A549, KRAS Gl2S.
Source text: as §1, §2
Human large cell lung cancer cell NCI-H460 (KRAS […] mutant type, ATCC), human non-small cell lung cancer cell line H1299 (NRAS Q61K mutant type, ATCC), human melanoma cell line A375 (BRAF V600E mutant type, Shanghai Cell Bank of Chinese Academy of Sciences), human colon cancer cell line HCT116 (KRAS G13D mutant type, Shanghai Cell Bank, Chinese Academy of Sciences) were cultured in a complete medium of 1×RPMI1640 (10% FBS), respectively. Human non-small cell lung cancer cells A549 (KRAS G12S mutant type, Shanghai Cell Bank, Chinese Academy of Sciences) were cultured in a complete medium of 1× Ham's supplemented with 10% FBS, 1% double antibody, and 2 mM glutamine.
as §4, §5, §6, §7
Tumor cell growth inhibition test was performed by selecting representative compounds (compounds 4, 11, 12, 16, 27, 68, 71, 77, 79, 89 and 116 of the present invention). The initial concentration of the compound was 5,000 nM, then it was serially diluted by 2-fold or 10-fold to 0.01 nM. […]

Among the data in patent US10647680B2, “Urea compound, preparation method therefor and medical use thereof” (Ancureall Pharmaceutical (Shanghai) Co., Ltd., priority 2016, dated 2020) are GI50 values, retold here.

Some results are limits rather than exact numbers.

In general, GI50 refers to the concentration giving 50% growth inhibition. A low value points to greater sensitivity of the cells.

Take `CC(C)(C)c1cc(NC(=O)Nc2ccc(-n3cnc4cc(O)ccc43)cc2)no1` [Compound 4, 1-(5-tert-butyl-isoxazol-3-yl)-3-[4-(5-hydroxy-benzimidazol-1-yl)-phenyl]-urea]: the values for the GI50 in test [1], in test [2] and in test [3] were over 2.5 µM, 1.89 µM and over 2.5 µM, respectively.

As to `CC(C)(C)c1cc(NC(=O)Nc2ccc(-n3cnc4cc(OCCO)ccc43)cc2)no1` [Compound 11, 1-(5-tert-butyl-isoxazol-3-yl)-3-{4-[5-(2-hydroxy-ethoxyl)-benzimidazol-1-yl]-phenyl]-urea], the GI50 in test [1] was over 2.5 µM; in test [2], 1.56 µM; in test [3], over 2.5 µM.

On to `CC(C)(C)c1cc(NC(=O)Nc2ccc(-n3cnc4cc(OCCN5CCOCC5)ccc43)cc2)no1` [Compound 16, 1-(5-tert-butyl-isoxazol-3-yl)-3-{4-[5-(2-morpholin-4-yl-ethoxyl)-benzimidazol-1-yl]-phenyl}-urea], for which the 50% growth inhibitory concentration (GI50) in test [1], in test [2] and in test [3] was over 2.5 µM throughout.

With `CC(C)(C)c1cc(NC(=O)Nc2ccc(-n3cnc4ccc(OCCN5CCOCC5)cc43)cc2)no1` [Compound 27, 1-(5-tert-butyl-isoxazol-3-yl)-3-{4-[6-(2morpholin-4-yl-ethoxyl)-benzimidazol-1-yl]-phenyl}-urea], the GI50 in test [1], in test [2] and in test [3] was over 2.5 µM throughout.

With `CC(C)(C)c1cc(NC(=O)Nc2ccc(-n3cnc4ccccc43)cc2)[nH]n1` [Compound 68, 1-(4-benzimidazol-1-yl-phenyl)-3-(5-tert-butyl-2H-pyrazol-3-yl)-urea], the GI50 in test [1], in test [2] and in test [3] was over 2.5 µM each time.

Regarding `COc1ccc2c(c1)ncn2-c1ccc(NC(=O)Nc2cc(C(C)(C)C)n[nH]2)cc1` [Compound 71, 1-(5-tert-butyl-2H-pyrazol-3-yl)-3-[4-(5-methoxyl-benzimidazol-1-yl)-phenyl]-urea], the GI50 in test [1], in test [2] and in test [3] was over 2.5 µM each time.

Turning to `COCCOc1ccc2c(c1)ncn2-c1ccc(NC(=O)Nc2cc(C(C)(C)C)n[nH]2)cc1` [Compound 77, 1-(5-tert-butyl-2H-pyrazol-3-yl)-3-{4-[5-(2-methoxyl-ethoxyl)-benzimidazol-1-yl]-phenyl}-urea], the GI50 in test [1], in test [2] and in test [3] was over 2.5 µM each time.

In the case of `CC(C)(C)c1cc(NC(=O)Nc2ccc(-n3cnc4cc(OCCO)ccc43)cc2)[nH]n1` [Compound 79, 1-(5-tert-butyl-2H-pyrazol-3-yl)-3-{4-[5-(2-hydroxy-ethoxyl)-benzimidazol-1-yl]-phenyl]urea], the concentration for 50% growth inhibition (GI50) was over 2.5 µM in test [1], 2 µM in test [2] and over 2.5 µM in test [3].

For the compound `CC(C)(C)c1cc(NC(=O)Nc2ccc(-n3cnc4cc(OCCN5CCOCC5)ccc43)cc2)[nH]n1` [Compound 89, 1-(5-tert-butyl-2H-pyrazol-3-yl)-3-{4-[5-(2-morpholin-4-yl-ethoxyl)-benzimidazol-1-yl]-phenyl}-urea], the GI50 in test [1], in test [2] and in test [3] was over 2.5 µM throughout.

Regarding `CC(C)(C)c1cc(N)n(C(=O)Nc2ccc(-n3cnc4ccccc43)cc2)n1` [Compound 116, 5-amino-3-tert-butyl-pyrazol-1-carboxylic acid (4-benzimidazol-1-yl-phenyl)-amide], the concentration for 50% growth inhibition (GI50) in test [1], in test [2] and in test [3] was over 2.5 µM in each case.
